# From US6949679B1, “Polyamine transport inhibitors” (Universite Laval, priority 1998, dated 2005)
# How the values were obtained:
# ZR-75-1 cells [1] = test: Time course of intracellular [3H]spermidine accumulation in presence of transport antagonists; format: cell-based, human; conditions: 200 μM DESC (40-fold excess), 5 μM [3H]spermidine, after 6 hours
# Method: The time course of intracellular accumulation of spermidine in the presence of transport antagonists was determined by incubating ZR-75-1 cells in 24-well plates with DESC (50 or 200 μM) or MESC (200 μM) in dissolved in MEZR medium containing 5 μM [^3H]spermidine in the presence or absence of cycloheximide (CHX, 200 μM), and harvesting at the indicated times for the determination of intracellular radioactive contents, as described above for polyamine uptake assays.
# [2] = Stability in biological media (cell-free, HPLC); format: physicochemical; conditions: IMEM, 48 hours, 37° C.
# Method: DESC stability was tested by incubating the compound dissolved (at 50 μM) in PBS or in IMEM medium containing 10% (v/v) fetal bovine serum plus or minus 1 mM aminoguanidine in a humid 5% CO2 atmosphere at 37° C. and in the absence of cells. At indicated times, trichloroacetic acid was added to aliquots of this solution to a final concentration 10% (w/v) and the samples directly analyzed by HPLC as above.
# The inability of DESC to block the biological effect of exogenous spermidine, even when present at large molar excesses, might have been caused by its degradation in growth media. To assess this hypothesis, DESC solutions (20 μM) made in PBS or in sterile IMEM medium enriched with 10% (v/v) FBS were incubated for 20 minutes or 48 hours under cell-free conditions at 37° C. in a humid 5% CO2 atmosphere, and the polyamine analog was then analyzed by ion-pair reversed-phase HPLC. After 48 hours, degradation of DESC to two new amine-containing derivatives occurred in IMEM (FIG. 9A, B) but not in PBS (FIG. 9C), as evidenced by the appearance of a major (compound 1) and minor (compound 2) peaks of o-phthaldialdehyde-reactive material eluting earlier than DESC. […] After 48 hours, i.e. the interval at which freshly made DESC-containing media were added to cell cultures in growth experiments, 40% of the DESC originally present had been decomposed by IMEM. […]
# ZR-75-1 cells [3] = test: Reversal of DFMO-induced growth inhibition by exogenous spermidine; format: cell-based, human; conditions: 50 μM DESC, DESC:spermidine ratio up to 500
# Method: For growth studies, ZR-75-1 cells were cultured in MEZR medium or in phenol red-free RPMI 1640 supplemented with 2 mM L-glutamine, 1 mM sodium pyruvate, 15 mM Hepes, antibiotics, 1 nM 17β-estradiol, 0.5 μg of bovine insulin per ml and 5% (v/v) charcoal-treated fetal bovine serum (SD medium), as indicated in the text. When polyamines or polyamine analogs were added to serum-containing media, 1 mM aminoguanidine was added to inhibit bovine serum amine oxidase (BSAO) activity (Morgan, D. M. L. 1989, in The Physiology of Polyamines (Bachrach, U., and Heimer, Y. M. eds) Vol. I, pp. 203-229, CRC Press, Boca Raton). The effect of the transport inhibitors on cell growth was measured by incubating ZR-75-1 cells for 11 days in medium supplemented with antagonist, polyamines and/or 1 mM DFMO as indicated, followed by colorimetric determination of DNA content with 3,4-diaminobenzoic acid (Simard, J., Dauvois, S., Haagensen, D. E., Lėvesque C., Mėrand, Y. and Labriė, F. 1990. Endocrinology 126: 3223-3231).
# This possibility was assessed by comparing the ability of DESC to prevent the reversal of DFMO-induced growth inhibition by increasing concentrations of exogenous spermidine.
# [4] = MESC: amino group neighboring the amide linkage; cited from earlier work
Structure (SMILES),Decrease of net spermidine accumulation (ZR-75-1 cells [1]) [%],DESC originally present decomposed [2] [%],Ability to prevent reversal of DFMO-induced growth inhibition by spermidine (ZR-75-1 cells [3]),pKa of secondary amino group of the spermine head [4]
"NCCCNCCCC(NCCCN)C(=O)NCCSSCCNC(=O)C(CCCNCCCN)NCCCN (stereo not shown) [DESC, 2,2′-dithiobis(N-ethyl-spermine-5-carboxamide)]",50,40,unable to prevent the reversal,–
"NCCCNCCCC(NCCCN)C(=O)NCCS (stereo not shown) [MESC, N-(2-mercaptoethyl)spermine-5-carboxamide]",–,–,–,5.5
